One test deals with other hT2Rs. Briefly: FURA-2 [Ca2+]i imaging in control untransfected cells or cells transfected with other hT2Rs. The format is cell-based, human. The method, then:
To determine whether other T2Rs are also activated by bitter compounds, 11 rhodopsin-tagged human T2R receptors were assayed by individually transfecting them into HEK-293 cells expressing Gα15. Each transfected line was tested against a battery of bitter and sweet tastants, including amino acids, peptides, and other natural and synthetic compounds.

The next test deals with T1, mT2R8 (Mus musculus, UniProt Q9JKT3).
T1 construct: expressed in transfected cells; host or cells: HEK-293 cells (PEAKrapid) expressing Gα15
T1 sequence (Q9JKT3 1-297): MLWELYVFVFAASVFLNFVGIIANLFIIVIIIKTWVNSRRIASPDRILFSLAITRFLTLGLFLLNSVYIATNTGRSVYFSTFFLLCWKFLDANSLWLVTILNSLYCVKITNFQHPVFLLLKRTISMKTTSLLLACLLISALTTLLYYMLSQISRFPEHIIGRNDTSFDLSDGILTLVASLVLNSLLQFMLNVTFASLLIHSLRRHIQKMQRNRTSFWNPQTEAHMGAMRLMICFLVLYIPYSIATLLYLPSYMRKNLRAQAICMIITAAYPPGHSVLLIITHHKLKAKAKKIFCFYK
The experiment in a line: FURA-2 [Ca2+]i imaging in HEK-293 cells expressing Gα15 and rho-mT2R8. Conditions: for [Ca2+]i response (FURA-2): 1.5 mM denatonium. The format is cell-based. The text has this: (§1) In this system, receptor activation leads to increases in intracellular calcium [Ca2+]i, which can be monitored at the single cell level using the FURA-2 calcium-indicator dye (Tsien et al., Cell Calcium 6:145-157 (1985)). To test and optimize Gα15 coupling, two different GPCRs, a Gαi-coupled μ-opioid receptor (Reisine, Neuropharm. 34:463-472 (1995)) and a Gαq-coupled mGluR1 receptor (Masu et al., Nature 349:760-765 (1991)), were used. Transfection of these receptors into HEK-293 cell produced robust, agonist-selective, and Gα15-dependent Ca^2+ responses (FIG. 1).
(§2) A number of studies have shown that many GPCRs, in particular sensory receptors, require specific “chaperones” for maturation and targeting through the secretory pathway (Baker et al., Embo J 13:4886-4895 (1994); Dwyer et al., Cell 93:455-466 (1998)). Recently, Krautwurst et al. (Cell 95:917-926 (1998)) generated chimeric receptors consisting of the first 20 amino acids of rhodopsin and various rodent olfactory receptors. These were targeted to the plasma membrane and functioned as odorant receptors in HEK-293 cells. To determine whether rhodopsin sequences can also help target T2Rs to the plasma membra, rhodopsin-T2R chimeras (rho-T2Rs) were constructed. […] Similar results were obtained with 11 human and 16 rodent T2Rs (see below). To further enhance the level of T2R expression, rho-T2Rs were placed under the control of a strong EF-1α promoter, and introduced as episomal plasmids into modified HEK-293 cells expressing Gα15 (pEAKrapid cells).
(§3) A bridge overlap PCR extension technique was used to generate rho-T2R chimeras, which contain the first 39 amino acids of bovine rhodopsin in frame with human and rodent T2R coding sequences (Mehta and Singh, Biotechniques 26:1082-1086 (1999). All receptors were cloned into a pEAK10 mammalian expression vector (Edge Biosystems, MD). Modified HEK-293 cells (PEAK^rapid cells; Edge BioSystems, MD) were grown and maintained at 37° C. in UltraCulture medium (Bio Whittaker) supplemented with 5% fetal bovine serum, 100 μg/ml Gentamycin sulphate (Fisher), 1 μg/ml Amphotericin B and 2 mM GlutaMax I (Lifetechnologies). For transfection, cells were seeded onto matrigel coated 24-well culture plates or 35 mm recording chambers. After 24 h at 37° C., cells were washed in OptiMEM medium (Lifetechnologies) and transfected using LipofectAMINE reagent (Lifetechnologies). Transfection efficiencies were estimated by co-transfection of a GFP reporter plasmid, and were typically >70%. Immunofluoresence staining, and activity assays were performed 36-48 h after transfection.
Transfected cells were washed once in Hank's balanced salt solution with 1 mM sodium pyruvate and 10 mM HEPES, pH 7.4 (assay buffer), and loaded with 2 μM FURA-2 AM (Molecular Probes) for 1 h at room temperature. The loading solution was removed and cells were incubated in 200 μl of assay buffer for 1 h to allow the cleavage of the AM ester. […] [Ca^2+]i changes were monitored using a Nikon Diaphot 200 microscope equipped with a 10×/0.5 fluor objective with the TILL imaging system (T.I.L.L Photonics GmbH). Acquisition and analysis of the fluorescence images used TILL-Vision software. Generally, [Ca^2+]i was measured for 80-120 s by sequentially illuminating cells for 200 ms at 340 nm and 380 nm and monitoring the fluorescence emission at 510 nm using a cooled CCD camera. The F340/F380 ratio was analyzed to measure [Ca^2+]i.
Kinetics of activation and deactivation were measured using a bath perfusion system. […]

The target of another test is T2, hT2R4 (Homo sapiens, UniProt Q9NYW5).
T2 construct: Full-length hT2Rs were isolated by PCR amplification of genomic DNA; expressed in transfected cells; host or cells: HEK-293 cells (PEAKrapid) expressing Gα15
T2 sequence (Q9NYW5 1-299): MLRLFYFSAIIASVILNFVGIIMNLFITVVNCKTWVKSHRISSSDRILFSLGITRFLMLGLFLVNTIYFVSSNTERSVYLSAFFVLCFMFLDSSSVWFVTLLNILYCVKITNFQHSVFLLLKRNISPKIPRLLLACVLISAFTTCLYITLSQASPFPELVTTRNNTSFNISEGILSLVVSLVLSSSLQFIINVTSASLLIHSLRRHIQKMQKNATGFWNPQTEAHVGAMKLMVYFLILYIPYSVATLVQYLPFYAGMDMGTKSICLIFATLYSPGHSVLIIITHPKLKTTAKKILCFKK
The experiment in a line: FURA-2 [Ca2+]i imaging in HEK-293 cells expressing Gα15 and rho-hT2R4. The format is cell-based. The following applies: for [Ca2+]i response (FURA-2): 1.5 mM denatonium.
Excerpt: as §1, §2, §3
Transfected cells were washed once in Hank's balanced salt solution with 1 mM sodium pyruvate and 10 mM HEPES, pH 7.4 (assay buffer), and loaded with 2 μM FURA-2 AM (Molecular Probes) for 1 h at room temperature. The loading solution was removed and cells were incubated in 200 μl of assay buffer for 1 h to allow the cleavage of the AM ester. For most experiments, 24-well tissue culture plates containing cells expressing a single rho-T2R were stimulated with 200 μl of a 2× tastant solution (see next section). [Ca^2+]i changes were monitored using a Nikon Diaphot 200 microscope equipped with a 10×/0.5 fluor objective with the TILL imaging system (T.I.L.L Photonics GmbH). Acquisition and analysis of the fluorescence images used TILL-Vision software. Generally, [Ca^2+]i was measured for 80-120 s by sequentially illuminating cells for 200 ms at 340 nm and 380 nm and monitoring the fluorescence emission at 510 nm using a cooled CCD camera. The F340/F380 ratio was analyzed to measure [Ca^2+]i.
Kinetics of activation and deactivation were measured using a bath perfusion system. Cells were seeded onto a 150 μl microperfusion chamber, and test solutions were pressure-ejected with a picospritzer apparatus (General Valve, Inc.). Flow-rate was adjusted to ensure complete exchange of the bath solution within 4-5 s. […]

The mark [1] stands for this setting: concentrations as in FIG. 4 (denatonium 5 mM).

For the molecule `CC[N+](CC)(CC(=O)Nc1c(C)cccc1C)Cc1ccccc1` [denatonium], the results for the “[Ca2+]i response” value with other hT2Rs and at hT2R4 were “not” and “significant transient increase in [Ca2+]i”, respectively. Besides, the receptor activation result at mT2R8 is listed as “activated”. Also, the “[Ca2+]i response (FURA-2)” value at mT2R8 (absence of Gα15) is “No increase in [Ca2+]i”; at mT2R8 (with Gα15), “robust Gα15 dependent responses”; on hT2R4 (absence of Gα15) it was “No increase in [Ca2+]i”; on hT2R4 (with Gα15), “robust Gα15 dependent responses”. Further, the “increase in [Ca2+]i on tastant stimulation” value at mT2R8 (setting [1]) and on hT2R4 (setting [1]) was “increase in [Ca2+]i could be induced” throughout. In addition, the “threshold of dose-dependent response” value at hT2R4 (in µM) was ~100.
